Consider 33 compounds from ChEMBL document CHEMBL3044927, “Novel 4(3H)-quinazolinone analogs: synthesis and anticonvulsant activity” (Med Chem Res, 2013).

Activity calls are given as the source filed them. The rule behind the calls is not given here.

What all share (assay type): functional
In assay [1] the test system is Mus musculus. The assay can be described thus: Anticonvulsant activity in Swiss albino Mus musculus (mouse) assessed as protection against PTZ-induced seizure at 1.5 mmol/kg, ip administered 30 min prior to PTZ-challenge measured up to 30 min relative to control.
For assay [2], the system named is Mus musculus. The assay can be described thus: Anticonvulsant activity in Swiss albino Mus musculus (mouse) assessed as protection against bicuculline-induced seizure at 1.5 mmol/kg, ip administered 30 min prior to bicuculline-challenge measured up to 30 min relative to control.
Assay [3] concerns Mus musculus. In words: Anticonvulsant activity in Swiss albino Mus musculus (mouse) assessed as protection against maximal electric shock-induced seizure at 1.5 mmol/kg, ip administered 30 min prior to maximal electric shock-challenge measured up to 30 min relative to control.
Assay [4] deals with Mus musculus. In words: Anticonvulsant activity in Swiss albino Mus musculus (mouse) assessed as protection against picrotoxin-induced seizure at 1.5 mmol/kg, ip administered 30 min prior to picrotoxin-challenge measured up to 30 min relative to control.

`O=C(COc1nc(-c2cccs2)nc2ccc(I)cc12)NN1C(=O)c2c(Cl)c(Cl)c(Cl)c(Cl)c2C1=O`: the Activity in assay [1] is on record as 30%.

In the case of `O=c1c2cc([N+](=O)[O-])ccc2nc(S)n1-c1ccccc1`, the Activity in assay [1] was 30%.

In the case of `O=C(Nn1c(-c2cccs2)nc2ccc(I)cc2c1=O)c1ccccc1`, the Activity in assay [2] is on record as 100%; in assay [1] it was 100%; in assay [3], 0%; in assay [4] it was 80%. For `Cc1ccc2nc(SCC(=O)NN3C(=O)CCC3=O)n(Cc3ccccc3)c(=O)c2c1`, the Activity in assay [1] was 30%. On to `Cc1ccc2nc(SCC(=O)NN3C(=O)c4cccc5cccc(c45)C3=O)n(Cc3ccccc3)c(=O)c2c1`, for which the Activity in assay [2] was found to be 100%; in assay [1], 70%; in assay [3], 30%; in assay [4] it was 80%. For the compound `O=C(COc1nc(-c2cccs2)nc2ccc(I)cc12)NN1C(=O)c2ccccc2C1=O`, the Activity in assay [1] is reported as 30%. Turning to `O=C(COc1nc(-c2cccs2)nc2ccc(I)cc12)NN1C(=O)c2c(Br)c(Br)c(Br)c(Br)c2C1=O`, in assay [1], the Activity was 30%.

As to `O=C1c2cccc3cccc(c23)C(=O)N1Nc1nc2ccc([N+](=O)[O-])cc2c(=O)n1Cc1ccccc1`, in assay [1], the Activity is 30%. In the case of `Cc1ccc2nc(S)n(Cc3ccccc3)c(=O)c2c1`, in assay [1], the result was inactive. Same read-out and setting: the entry for `Cc1ccc2nc(SCC(=O)NN3C(=O)c4c(Cl)c(Cl)c(Cl)c(Cl)c4C3=O)n(Cc3ccccc3)c(=O)c2c1` is “inactive”; for `O=C1c2c(Cl)c(Cl)c(Cl)c(Cl)c2C(=O)N1n1c(-c2cccs2)nc2ccc(I)cc2c1=O` it is “inactive”; for `O=C(Nc1ccc(I)cc1C(=O)O)c1cccs1` it is “inactive”.

Turning to `O=c1c2cc([N+](=O)[O-])ccc2nc(S)n1Cc1ccccc1`, the outcome in assay [1] was inactive.

Turning to `CCOC(=O)COc1nc(-c2cccs2)nc2ccc(I)cc12`, the Activity in assay [1] worked out at 30%. With `Cn1c(-c2cccs2)nc2ccc(I)cc2c1=O`, the Activity is on record as 100% in assay [2], 100% in assay [1] and 0% in assay [3].

In the case of `Cc1ccc2nc(SCC(=O)NN3C(=O)c4c(Br)c(Br)c(Br)c(Br)c4C3=O)n(-c3ccccc3)c(=O)c2c1`, in assay [1], the result was inactive. For the compound `NNC(=O)COc1nc(-c2cccs2)nc2ccc(I)cc12`, the Activity in assay [1] is listed as 30%. As for `NNc1nc2ccc([N+](=O)[O-])cc2c(=O)n1Cc1ccccc1`, in assay [1], the result was inactive. As to `Cc1ccc2nc(SCC(=O)NN3C(=O)c4c(Br)c(Br)c(Br)c(Br)c4C3=O)n(Cc3ccccc3)c(=O)c2c1`, the result in assay [1] was inactive. As to `CCOC(=O)CSc1nc2ccc(C)cc2c(=O)n1-c1ccccc1`, the outcome in assay [1] was inactive. On the same count and under the same terms, under `O=c1[nH]c(-c2cccs2)nc2ccc(I)cc12` stands “inactive”. Still for that read-out and setting: the entry for `CCOC(=O)CSc1nc2ccc(C)cc2c(=O)n1Cc1ccccc1` is “inactive”. Consider `Cc1ccc2nc(SCC(=O)NN3C(=O)c4ccccc4C3=O)n(-c3ccccc3)c(=O)c2c1`, for which the result in assay [1] was inactive. As to `O=C1c2c(Br)c(Br)c(Br)c(Br)c2C(=O)N1n1c(-c2cccs2)nc2ccc(I)cc2c1=O`, the Activity in assay [1] is recorded as 30%. With `Cc1ccc2nc(SCC(=O)NN3C(=O)c4cccc5cccc(c45)C3=O)n(-c3ccccc3)c(=O)c2c1`, the outcome in assay [1] was inactive.

In the case of `CCOC(=O)CSc1nc2ccc([N+](=O)[O-])cc2c(=O)n1-c1ccccc1`, the outcome in assay [1] was inactive. `Cc1ccc2nc(SCC(=O)NN3C(=O)c4ccccc4C3=O)n(Cc3ccccc3)c(=O)c2c1`: the outcome in assay [1] was inactive.

On to `O=C1c2cccc3cccc(c23)C(=O)N1n1c(-c2cccs2)nc2ccc(I)cc2c1=O`, for which the outcome in assay [1] was inactive. For `O=C(COc1nc(-c2cccs2)nc2ccc(I)cc12)NN1C(=O)c2cccc3cccc(c23)C1=O`, in assay [1], the result was inactive. For the compound `Cc1ccc2nc(S)n(-c3ccccc3)c(=O)c2c1`, the Activity in assay [2] turned out to be 100%; in assay [1], 70%; in assay [3], 0%; in assay [4] it was 80%. Turning to `O=c1oc(-c2cccs2)nc2ccc(I)cc12`, the result in assay [1] was inactive. The same measure, in the same setting: under `CCOC(=O)CSc1nc2ccc([N+](=O)[O-])cc2c(=O)n1Cc1ccccc1` stands “inactive”; under `NNc1nc2ccc([N+](=O)[O-])cc2c(=O)n1-c1ccccc1`, 30%.
